Molecules are shown by their SMILES. “And” between values parts separate entries of the source, which are not always exact repeats. Equal values may be shown once. Read-outs that look alike come from different tables or passages of the source.

Here are results for ten compounds from patent US10702486B2, “Treatment of CNS disorders with trans 4-(3,4-dichlorophenyl)-1,2,3,4-tetrahydro-1-naphthalenamine” (SUNOVION PHARMACEUTICALS INC., priority 2002, dated 2020).

The target in assay [1] is T1, functional uptake of dopamine (DA) (Rattus norvegicus, UniProt P23977).
T1 construct: synaptosomes isolated at Cerep in a 0.32 M sucrose buffer from a male Wistar rat striatum; tissue Cerep; host or cells: male Wistar rat striatum synaptosomes
T1 sequence (P23977 whole entry): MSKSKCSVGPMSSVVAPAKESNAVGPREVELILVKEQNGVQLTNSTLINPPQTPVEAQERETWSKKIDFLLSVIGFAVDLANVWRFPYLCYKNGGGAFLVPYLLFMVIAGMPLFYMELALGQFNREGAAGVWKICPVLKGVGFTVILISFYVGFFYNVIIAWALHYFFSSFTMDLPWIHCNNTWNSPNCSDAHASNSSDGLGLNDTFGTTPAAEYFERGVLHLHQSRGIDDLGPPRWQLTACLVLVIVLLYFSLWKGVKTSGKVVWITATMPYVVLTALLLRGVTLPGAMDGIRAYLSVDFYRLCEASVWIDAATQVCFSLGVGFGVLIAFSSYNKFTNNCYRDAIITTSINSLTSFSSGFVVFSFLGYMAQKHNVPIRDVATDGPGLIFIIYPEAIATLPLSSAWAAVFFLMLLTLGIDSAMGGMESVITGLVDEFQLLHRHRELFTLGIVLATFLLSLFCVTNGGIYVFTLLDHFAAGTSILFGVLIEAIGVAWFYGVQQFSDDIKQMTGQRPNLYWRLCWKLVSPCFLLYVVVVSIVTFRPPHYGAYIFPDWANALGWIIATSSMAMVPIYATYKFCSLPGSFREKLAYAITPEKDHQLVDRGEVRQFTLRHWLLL
Put plainly: Dopamine functional uptake assay in rat striatum synaptosomes. Conditions: for inhibition at 10 µM: tested initially at 10 μM in duplicate, read-out: inhibition of DA uptake (no IC50), Table 1; for IC50: rat striatum synaptosomes, [3H]-dopamine, 15 minutes at 37° C. The class given is biochemical.
Procedure: Dopamine Functional Uptake Assay
Characterization of dopamine uptake is performed using synaptosomes isolated at Cerep in a 0.32 M sucrose buffer from a male Wistar rat striatum. The uptake of radiolabelled dopamine by synaptosomes (20 μg of proteins/point) is allowed by incubating them for 15 minutes at 37° C. in presence of test compounds and [^3H]-dopamine (0.1 μCi/point). The experiment is performed in a deep well. Synaptosomes and [^3H]-dopamine are prepared in a Krebs buffer pH 7.4 containing 25 mM NaHCO3, 11 mM glucose and 50 μM ascorbic acid. This incubation buffer is oxygenated during 5 minutes before incubation. Basal control is incubated for 15 minutes at 4° C. in order to avoid any uptake. Following this incubation the uptake is stopped by filtration through an “unifilter 96-wells GFB Packard plate” washed with Krebs buffer containing 25 mM NaHCO3 in order to eliminate free [^3H]-dopamine. The radioactivity associated to the synaptosomes retained onto the unifilter corresponding to the uptake is then measured with a microplate scintillation counter Topcount, Packard using a scintillation liquid microscint 0, Packard.

The nature of assay [2]: Behavioral Despair Test in Mice. The class given is in vivo. The arrangement: key to Dunnett, significance vs vehicle: * indicates a significant difference vs vehicle for P < 0.05 (Dunnett test).
Assay [3] deals with T2, functional uptake of serotonin (5-HT) (Rattus norvegicus, UniProt P31652).
T2 construct: synaptosomes isolated in a 0.32M sucrose buffer from a male Wistar rat cortex; from tissue
T2 sequence (P31652 whole entry): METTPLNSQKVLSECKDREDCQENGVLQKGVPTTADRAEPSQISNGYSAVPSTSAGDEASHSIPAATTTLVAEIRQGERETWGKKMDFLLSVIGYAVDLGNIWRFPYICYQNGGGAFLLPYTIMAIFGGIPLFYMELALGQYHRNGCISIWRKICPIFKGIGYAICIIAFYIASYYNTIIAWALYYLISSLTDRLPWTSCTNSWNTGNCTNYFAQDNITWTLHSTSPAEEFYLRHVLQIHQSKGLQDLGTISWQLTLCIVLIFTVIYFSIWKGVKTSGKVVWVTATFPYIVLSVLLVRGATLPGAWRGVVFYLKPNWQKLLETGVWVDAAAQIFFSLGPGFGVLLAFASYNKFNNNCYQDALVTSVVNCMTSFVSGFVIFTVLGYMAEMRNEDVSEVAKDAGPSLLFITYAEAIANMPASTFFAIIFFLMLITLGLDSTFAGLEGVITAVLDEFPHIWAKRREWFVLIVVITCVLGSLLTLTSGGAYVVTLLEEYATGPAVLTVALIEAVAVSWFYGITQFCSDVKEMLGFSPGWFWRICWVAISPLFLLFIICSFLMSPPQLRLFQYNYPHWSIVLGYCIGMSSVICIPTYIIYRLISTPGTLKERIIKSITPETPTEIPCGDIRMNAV
Nature of the assay: Serotonin functional uptake assay in rat synaptosomes. The format is biochemical. Conditions: for inhibition at 10 µM: tested initially at 10 μM in duplicate.
Procedure: (§1) The compounds of the invention were tested for their inhibition of functional uptake of serotonin (5-HT), norepinephrine (NE), or dopamine (DA), in synaptosomes prepared from rat whole brain, hypothalamus, or corpus striatum, respectively.
Serotonin Functional Uptake Assay
Characterization of serotonin uptake is performed using synaptosomes isolated in a 0.32M sucrose buffer from a male Wistar rat cortex. The uptake of radiolabelled serotonin by synaptosomes (100 μg of proteins/point) is allowed by incubating them in a deep well for 15 min at 37° C. in presence of test compounds and [^3H]5-hydroxytryptamine (0.1 μCi/point).
Synaptosomes and [^3H]5-hydroxytryptamine are prepared in a Krebs buffer pH 7.4 containing 25 mM NaHCO3, 11 mM glucose and 50 μM ascorbic acid. This incubation buffer is oxygenated during 5 minutes before incubation. Basal control is incubated for 15 minutes at 4° C. in order to avoid any uptake. Following this incubation the uptake is stopped by filtration through an “unifilter 96-wells GFB Packard plate” washed with Krebs buffer containing 25 mM NaHCO3 in order to eliminate the free [^3H]5-hydroxytryptamine. The radioactivity associated to the synaptosomes retained onto the unifilter corresponding to the uptake is then measured with a microplate scintillation counter Topcount, Packard using a scintillation liquid microscint 0, Packard.

Assay [4] addresses functional uptake of norepinephrine (NE) (Rattus norvegicus, UniProt Q9WTR4). Nature of the assay: Norepinephrine functional uptake assay in rat hypothalamus synaptosomes. The format is biochemical. Conditions: [3H]-norepinephrine, 20 minutes at 37° C.
Procedure: as §1
Norepinephrine Functional Uptake Assay
Characterization of norepinephrine uptake is performed using synaptosomes isolated at Cerep in a 0.32 M sucrose buffer from a male Wistar rat hypothalamus. The uptake of radiolabeled norepinephrine by synaptosomes (100 μg of proteins/point) is allowed by incubating them for 20 minutes at 37° C. in presence of test compounds and [^3H]-norepinephrine (0.1 μCi/point). The experiment is performed in a deep well.
Synaptosomes and [^3H]-norepinephrine are prepared in a Krebs buffer pH 7.4 containing 25 mM NaHCO3, 11 mM glucose and 50 μM ascorbic acid. This incubation buffer is oxygenated during 5 minutes before incubation. Basal control is incubated for 20 minutes at 4° C. in order to avoid any uptake. Following this incubation the uptake is stopped by filtration through an “unifilter 96-wells GFB “Packard plate washed with Krebs buffer containing 25 mM NaHCO3 in order to eliminate the free [^3H]-norepinephrine. The radioactivity associated to the synaptosomes retained onto the unifilter corresponding to the uptake is then measured with a microplate scintillation counter Topcount, Packard using a scintillation liquid microscint 0, Packard.
For assay [5] the following is noted: Hamelin et al. 1996; Serebruany et al. 2001; cited from earlier work.
The mark [6] stands for this setting: 10 mg/kg, N = 10, E intraperitoneal.
The mark [7] stands for this setting: 50 mg/kg intraperitoneal, N = 10.

As for `CN(C)CCCN1c2ccccc2CCc2ccccc21` [imipramine, reference compound], the inhibition at 10 µM in assay [1] is less than 50%. Moreover, the “Dunnett, significance vs vehicle” value in assay [2] (10 mg/kg, N = 10) was “*”. Also, in assay [2] (setting [6]), the “Immobility Duration (sec.), individual mice” value was 28 sec. and 156 sec. and 98 sec. and 0 sec. (2×) and 63 sec. and 30 sec. and 56 sec. and 116 sec. and 64 sec; the “Immobility Duration, Mean ± sem” value was 61 s.
For the compound `CNCCCC1c2ccccc2C=Cc2ccccc21` [protriptyline, reference compound], the inhibition at 10 µM in assay [1] was less than 50%.
On to `O=CN[C@@H]1CC[C@@H](c2ccc(Cl)c(Cl)c2)c2ccccc21` [E, (R,S/S,R) N-[4-(3,4-dichlorophenyl)-1,2,3,4-tetrahydronaphthalen-1-yl]formamide], for which the concentration for half-maximal inhibition (IC50) in assay [3] (rat synaptosomes, [3H]5-hydroxytryptamine, 15 min at 37° C.) was 7500 nM; in assay [4], 400 nM; in assay [1] it was 510 nM. Further, the “Dunnett, significance vs vehicle” value is “*” in assay [2] (10 mg/kg, N = 10) and “*” in assay [2] (50 mg/kg, N = 10). The “Immobility Duration (sec.), individual mice” value is 59 s and 162 s and 131 s and 22 s and 167 s and 58 s and 135 s and 122 s and 164 s and 50 s in assay [2] (setting [6]); 15 sec. (2×) and 0 sec. (3×) and 98 sec. and 34 sec. and 59 sec. and 25 sec. and 63 sec in assay [2] (setting [7]). Moreover, the “Immobility Duration, Mean ± sem” value in assay [2] (setting [6]) came out at 107 s; in assay [2] (setting [7]), 31 s.
On to `CC(NC(C)(C)C)C(=O)c1cccc(Cl)c1` (stereo not drawn) [bupropion, reference compound], for which the IC50 in assay [4] turned out to be 611 nM.
On to `Fc1ccc(C(OCCN2CCN(CCCc3ccccc3)CC2)c2ccc(F)cc2)cc1` [GBR 12909, reference compound], for which the inhibition at 10 µM in assay [3] (read-out: inhibition of 5-HT uptake (no IC50), Table 1) is less than 50%.
Turning to `N[C@@H]1CC[C@@H](c2ccc(Cl)c(Cl)c2)c2ccccc21` [P, (1R,4S)-trans 4-(3,4-dichlorophenyl)-1,2,3,4-tetrahydro-1-naphthalenamine], in assay [4], the IC50 is 9.6 nM.
For `O=CN[C@@H]1CC[C@@H](c2ccc(Cl)c(Cl)c2)c2ccccc21` (racemic) [F, N-[4-(3,4-dichlorophenyl)-1,2,3,4-tetrahydronaphthalen-1-yl]formamide], the inhibition at 10 µM in assay [3] (read-out: inhibition of 5-HT uptake (no IC50), Table 3) was less than 50%. Also, the values for the IC50 in assay [4] and in assay [1] were 3900 nM and 530 nM, respectively.
Take `N[C@H]1CC[C@H](c2ccc(Cl)c(Cl)c2)c2ccccc21` [Q, (1S,4R)-trans 4-(3,4-dichlorophenyl)-1,2,3,4-tetrahydro-1-naphthalenamine]: the IC50 in assay [4] was 35 nM.
As to `N[C@H]1CC[C@@H](c2ccc(Cl)c(Cl)c2)c2ccccc21` [norsertraline, (1S,4S)-cis 4-(3,4-dichlorophenyl)-1,2,3,4-tetrahydro-1-naphthalenamine], the “neurological activity as stated in literature reports” value in assay [5] is “neurologically inactive”.
Regarding `N[C@@H]1CC[C@@H](c2ccc(Cl)c(Cl)c2)c2ccccc21` (racemic) [P + Q, trans-4-(3,4-dichlorophenyl)-1,2,3,4-tetrahydro-1-naphthalenamine], the IC50 in assay [4] turned out to be 8.8 nM; in assay [1], 7.1 nM.

The inhibition is how much of the control response was suppressed. Usually IC50 stands for the midpoint of a concentration-inhibition curve.
